# Measurements published in patent publication US10239843B2 (CANCER RESEARCH TECHNOLOGY LIMITED, priority 2014, dated 2019).
# pIC50: −log10 of the molar value. Like-named read-outs stand apart in the source and are kept apart here.
# Legend:
# Human Full Length PARG = Human Full Length PARG (Homo sapiens (Human), UniProt Q86W56); assay: PARG enzyme assay (TR-FRET); format: biochemical
# PARG in HeLa cell line = assay: PARG cell assay (PAR chain immunofluorescence after MMS); format: cell-based; settings: HeLa cells
# Summary of the method: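 Nuclear poly(ADP-ribose) chains in HeLa cells are read by indirect immunofluorescence with a mouse anti-PAR antibody applied overnight at 4° C after fixing and permeabilising. Cells get 1 h of compound, then 50 μg/mL MMS (final) for another hour. PAR persisting at that point reflects PARG inhibition.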
# [1] = read-out: PARG Biochem IC50 Geomean
# [2] = Homo sapiens, MMS 50 μg/mL, read-out: PARG Cell IC50 Geomean
# [3] = Homo sapiens, MMS treatment, read-out: PARG Cell IC50
# [4] = MMS 50 μg/mL, read-out: PARG Cell IC50 Geomean
# [5] = MMS treatment, read-out: PARG Cell IC50
# Chain of Human Full Length PARG (Q86W56 whole entry): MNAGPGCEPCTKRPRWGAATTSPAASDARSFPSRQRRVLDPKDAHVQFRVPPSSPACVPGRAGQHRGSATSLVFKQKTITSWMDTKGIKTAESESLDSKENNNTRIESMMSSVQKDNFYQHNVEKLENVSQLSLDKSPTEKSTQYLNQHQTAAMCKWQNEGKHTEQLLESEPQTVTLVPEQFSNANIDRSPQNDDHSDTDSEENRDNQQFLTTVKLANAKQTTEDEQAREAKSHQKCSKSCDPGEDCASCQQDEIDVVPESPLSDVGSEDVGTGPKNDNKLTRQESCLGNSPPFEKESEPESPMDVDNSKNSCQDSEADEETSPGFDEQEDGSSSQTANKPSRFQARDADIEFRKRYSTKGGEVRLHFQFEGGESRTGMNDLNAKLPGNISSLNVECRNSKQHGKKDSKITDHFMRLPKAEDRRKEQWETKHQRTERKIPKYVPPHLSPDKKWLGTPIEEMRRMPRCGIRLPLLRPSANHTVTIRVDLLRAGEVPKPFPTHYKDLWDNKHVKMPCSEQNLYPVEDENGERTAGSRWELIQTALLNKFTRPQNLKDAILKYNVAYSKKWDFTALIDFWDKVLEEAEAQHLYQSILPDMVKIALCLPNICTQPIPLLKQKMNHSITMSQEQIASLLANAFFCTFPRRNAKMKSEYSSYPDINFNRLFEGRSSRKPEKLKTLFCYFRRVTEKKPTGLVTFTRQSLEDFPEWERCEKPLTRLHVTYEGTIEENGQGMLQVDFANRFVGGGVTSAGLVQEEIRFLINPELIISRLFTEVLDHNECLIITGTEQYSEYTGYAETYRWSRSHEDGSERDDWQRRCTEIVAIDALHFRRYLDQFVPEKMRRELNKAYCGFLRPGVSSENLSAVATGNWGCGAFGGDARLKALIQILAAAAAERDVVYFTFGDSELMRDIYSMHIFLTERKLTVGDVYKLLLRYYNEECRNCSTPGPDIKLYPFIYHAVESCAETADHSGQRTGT
SMILES,pIC50 (Human Full Length PARG; [1]),pIC50 (PARG in HeLa cell line; [2]),pIC50 (Human Full Length PARG; read-out: PARG Biochem IC50),pIC50 (PARG in HeLa cell line; [3]),other results
"Cn1c(=O)n(Cc2cn[nH]c2)c(=O)c2cc(S(=O)(=O)NC3(C)CC3)ccc21 [Example 183, 1-methyl-N-(1-methylcyclopropyl)-2,4-dioxo-3-(1H-pyrazol-4-ylmethyl)quinazoline-6-sulfonamide]",6.42,6.03,–,–,–
"Cc1ncc(Cn2c(=O)c3cc(S(=O)(=O)NC4(C)CC4)ccc3n(CC#N)c2=O)s1 [Example 502, 1-(Cyanomethyl)-N-(1-methylcyclopropyl)-3-[(2-methylthiazol-5-yl)methyl]-2,4-dioxo-quinazoline-6-sulfonamide]",–,–,6.55,6.77,–
"Cc1cc(Cn2c(=O)[nH]c3ccc(S(=O)(=O)NC4(C#N)CC4)cc3c2=O)on1 [Example 228, N-(1-Cyanocyclopropyl)-3-[(3-methylisoxazol-5-yl)methyl]-2,4-dioxo-1H-quinazoline-6-sulfonamide]",6.45,–,–,–,pIC50 (PARG in HeLa cell line; [4]): 4.82
Cc1cc(Cn2c(=O)c3cc(S(=O)(=O)NC4(C)CC4)ccc3n(CCC(N)=O)c2=O)on1 [Example 277],6.36,5.24,–,–,–
"Cc1cc(Cn2c(=O)c3cc(S(=O)(=O)NC4(C)CC4)ccc3n(CC3(C#N)CC3)c2=O)on1 [Example 420, 1-[(1-Cyanocyclopropyl)methyl]-N-(1-methylcyclopropyl)-3-[(3-methylisoxazol-5-yl)methyl]-2,4-dioxo-quinazoline-6-sulfonamide]",–,–,6.85,6.79,–
COc1ccc(Cn2c(=O)n(C)c(=O)c3cc(S(=O)(=O)NC4(C)CC4)ccc32)cc1 [Example 61],6.34,6.70,–,–,–
"Cc1cc(CN2C(=O)c3cccc4cc(S(=O)(=O)NC5(C)CC5)cc(c34)C2=O)on1 [Example 464, N-(1-Methylcyclopropyl)-2-[(3-methylisoxazol-5-yl)methyl]-1,3-dioxo-benzo[de]isoquinoline-5-sulfonamide]",–,–,5.98,5.96,–
"Cn1cc(Cn2c(=O)[nH]c3c(Br)cc(S(=O)(=O)NC4(C)CC4)cc3c2=O)cn1 [Example 422, 8-Bromo-N-(1-methylcyclopropyl)-3-[(1-methylpyrazol-4-yl)methyl]-2,4-dioxo-1H-quinazoline-6-sulfonamide]",–,–,6.29,6.21,–
"Cn1cc(Cc2cc3cc(S(=O)(=O)NC4(C)CC4)ccc3[nH]c2=O)cn1 [Example 486, N-(1-Methylcyclopropyl)-3-[(1-methylpyrazol-4-yl)methyl]-2-oxo-1H-quinoline-6-sulfonamide]",–,–,5.79,5.64,–
"Cc1cc(Cn2c(=O)c3cc(S(=O)(=O)NC4(C)CC4)cc(-c4ccc(C)s4)c3n(C)c2=O)on1 [Example 493, 1-Methyl-N-(1-methylcyclopropyl)-3-[(3-methylisoxazol-5-yl)methyl]-8-(5-methyl-2-thienyl)-2,4-dioxo-quinazoline-6-sulfonamide]",–,–,6.34,6.28,–
"Cn1c(=O)n(Cc2ccnnc2)c(=O)c2cc(S(=O)(=O)NC3(C)CC3)ccc21 [Example 446, 1-Methyl-N-(1-methylcyclopropyl)-2,4-dioxo-3-(pyridazin-4-ylmethyl)quinazoline-6-sulfonamide]",–,–,4.87,4.72,–
Cc1cc(Cn2nc(C(C)C)c3ccc(S(=O)(=O)NC4(C)CC4)cc3c2=O)on1 [Example 310],6.51,6.34,–,–,–
Cc1cc(Cn2c(=O)c3cc(S(=O)(=O)NC4(C)CC4)ccc3n(CC3CC3)c2=O)on1 [Example 197],7.26,7.31,–,–,–
Cc1cc(Cn2c(=O)c3cc(S(=O)(=O)NC4(C)CC4)ccc3n(CC3CCN(C)C3)c2=O)on1 (stereo not drawn) [Example 361],6.48,5.85,–,–,–
Cc1cc(Cn2c(=O)c3cc(S(=O)(=O)NC4(C#N)CC4)ccc3n(C)c2=O)on1 [Example 229],6.35,5.83,–,–,–
Cn1c(=O)c2cc(S(=O)(=O)NC3(C)CC3)ccc2n(Cc2cnc(Cl)s2)c1=O [Example 145],6.82,6.47,–,–,–
"Cc1cc(Cn2c(=O)c3cc(S(=O)(=O)NC4(C)CC4)ccc3n(CCCO)c2=O)on1 [Example 407, 1-(3-Hydroxypropyl)-N-(1-methylcyclopropyl)-3-[(3-methylisoxazol-5-yl)methyl]-2,4-dioxo-quinazoline-6-sulfonamide]",–,–,6.40,6.20,–
Cc1cc(Cn2nc(OC3COC3)c3ccc(S(=O)(=O)NC4(C)CC4)cc3c2=O)on1 [Example 317],6.31,–,–,–,pIC50 (PARG in HeLa cell line; [4]): 6.04

# More lines, main results first:
pIC50 (Human Full Length PARG; [1]),pIC50 (PARG in HeLa cell line; [2]),pIC50 (Human Full Length PARG; read-out: PARG Biochem IC50),pIC50 (PARG in HeLa cell line; [3]),SMILES,other results
–,–,7.38,7.25,"CC(C)CCn1c(=O)n(Cc2cnn(C)c2)c(=O)c2cc(S(=O)(=O)NC3(CF)CC3)ccc21 [Example 613, N-[1-(Fluoromethyl)cyclopropyl]-1-isopentyl-3-[(1-methylpyrazol-4-yl)methyl]-2,4-dioxo-quinazoline-6-sulfonamide]",–
–,–,7.42,7.28,"Cn1cc(Cn2c(=O)c3cc(S(=O)(=O)NC4(CF)CC4)ccc3n(Cc3ccno3)c2=O)cn1 [Example 585, N-[1-(Fluoromethyl)cyclopropyl]-1-(isoxazol-5-ylmethyl)-3-[(1-methylpyrazol-4-yl)methyl]-2,4-dioxo-quinazoline-6-sulfonamide]",–
6.96,6.82,–,–,C#CCn1c(=O)n(Cc2c(C)noc2C)c(=O)c2cc(S(=O)(=O)NC3(C)CC3)ccc21 [Example 159],–
6.97,6.97,–,–,Cn1cc(Cn2c(=O)c3cc(S(=O)(=O)NC4(C)CC4)ccc3n(CC3CCOC3)c2=O)cn1 (stereo not drawn) [Example 259],–
–,–,6.84,6.77,"Cc1noc(C)c1Cn1c(=O)n(Cc2cnn(C)c2)c(=O)c2cc(S(=O)(=O)NC3(CF)CC3)ccc21 [Example 545, 1-[(3,5-Dimethylisoxazol-4-yl)methyl]-N-[1-(fluoromethyl)cyclopropyl]-3-[(1-methylpyrazol-4-yl)methyl]-2,4-dioxo-quinazoline-6-sulfonamide]",–
–,–,7.15,5.41,"Cc1cc(Cn2c(=O)n(Cc3cnn(C)c3)c(=O)c3cc(S(=O)(=O)NC4(C#N)CC4)c(F)cc32)on1 [Example 404, N-(1-Cyanocyclopropyl)-7-fluoro-1-[(3-methylisoxazol-5-yl)methyl]-3-[(1-methylpyrazol-4-yl)methyl]-2,4-dioxo-quinazoline-6-sulfonamide]",–
–,–,7.24,–,"Cn1cc(Cn2c(=O)c3cc(S(=O)(=O)NC4(CF)CC4)ccc3n(Cc3cscn3)c2=O)cn1 [Example 581, N-[1-(Fluoromethyl)cyclopropyl]-3-[(1-methylpyrazol-4-yl)methyl]-2,4-dioxo-1-(thiazol-4-ylmethyl)quinazoline-6-sulfonamide]",pIC50 (PARG in HeLa cell line; [5]): 7.26
–,–,6.10,6.53,"Cc1cc(Cn2c(=O)c3cc(S(=O)(=O)NC4(CF)CC4)ccc3n(C(F)F)c2=O)on1 [Example 604, 1-(Difluoromethyl)-N-[1-(fluoromethyl)cyclopropyl]-3-[(3-methylisoxazol-5-yl)methyl]-2,4-dioxo-quinazoline-6-sulfonamide]",–
–,–,6.37,–,"Cn1cc(Cn2c(=O)[nH]c3ccc(S(=O)(=O)NC4(CF)CC4)cc3c2=O)cn1 [Example 416, N-[1-(Fluoromethyl)cyclopropyl]-3-[(1-methylpyrazol-4-yl)methyl]-2,4-dioxo-1H-quinazoline-6-sulfonamide]",pIC50 (PARG in HeLa cell line; [5]): 5.88
7.01,–,–,–,Cn1cc(Cn2c(=O)c3cc(S(=O)(=O)NC4(C)CC4)ccc3n(CCN3CCOCC3)c2=O)cn1 [Example 271],pIC50 (PARG in HeLa cell line; [4]): 6.79
–,–,6.54,6.55,"Cc1ncc(Cn2c(=O)c3cc(S(=O)(=O)NC4(CF)CC4)ccc3n(C)c2=O)s1 [Example 533, N-[1-(Fluoromethyl)cyclopropyl]-1-methyl-3-[(2-methylthiazol-5-yl)methyl]-2,4-dioxo-quinazoline-6-sulfonamide]",–
–,–,7.52,6.11,"Cn1cc(Cn2c(=O)c3cc(S(=O)(=O)NC4(CF)CC4)ccc3n(Cc3cn[nH]c3)c2=O)cn1 [Example 590, N-[1-(Fluoromethyl)cyclopropyl]-3-[(1-methylpyrazol-4-yl)methyl]-2,4-dioxo-1-(1H-pyrazol-4-ylmethyl)quinazoline-6-sulfonamide]",–
7.12,7.36,–,–,Cn1cc(Cn2c(=O)c3cc(S(=O)(=O)NC4(C)CC4)ccc3n(CC3CCC3)c2=O)cn1 [Example 281],–
–,–,7.29,7.25,"CC(C)=CCn1c(=O)n(Cc2cnn(C)c2)c(=O)c2cc(S(=O)(=O)NC3(CF)CC3)ccc21 [Example 609, N-[1-(Fluoromethyl)cyclopropyl]-1-(3-methylbut-2-enyl)-3-[(1-methylpyrazol-4-yl)methyl]-2,4-dioxo-quinazoline-6-sulfonamide]",–
–,–,6.80,6.45,"Cc1cc(Cn2c(=O)c3cc(S(=O)(=O)NC4(CF)CC4)ccc3n(Cc3nncs3)c2=O)on1 [Example 627, N-[1-(Fluoromethyl)cyclopropyl]-3-[(3-methylisoxazol-5-yl)methyl]-2,4-dioxo-1-(1,3,4-thiadiazol-2-ylmethyl)quinazoline-6-sulfonamide]",–
–,–,6.98,7.34,"Cn1cc(Cn2c(=O)c3cc(S(=O)(=O)NC4(C)CC4)ccc3n(CC3CC3(F)F)c2=O)cn1 (stereo not drawn) [Example 435, 1-[(2,2-Difluorocyclopropyl)methyl]-N-(1-methylcyclopropyl)-3-[(1-methylpyrazol-4-yl)methyl]-2,4-dioxo-quinazoline-6-sulfonamide]",–
6.77,7.29,–,–,Cn1cc(Cn2c(=O)c3cc(S(=O)(=O)NC4(C)CC4)ccc3n(CC3CCCC3)c2=O)cn1 [Example 279],–
7.02,5.40,–,–,Cn1cc(Cn2c(=O)c3cc(S(=O)(=O)NC4(C#N)CC4)ccc3n(CC3CCOC3)c2=O)cn1 (stereo not drawn) [Example 377],–
